# From patent US9862724B2, “Pyrazolo[1,5-a]pyrimidine-based compounds, compositions comprising them, and methods of their use” (LEXICON PHARMACEUTICALS, INC., priority 2013, dated 2018)
# Read-outs that look alike come from different tables or passages of the source.
# Columns and labels:
# [1] = target: T1, AAK1 (full-length human protein) (Homo sapiens, UniProt Q2M2I8); test: P81 filter plate assay; format: biochemical; conditions: 0.2 nM 2x AAK1, Mu2 substrate, 33P-ATP
# T1 construct: NP_055726.2
# Protocol: Compounds were serially diluted into a Labcyte LDV plate (Labcyte, cat# LP-0200) using a Mutiprobe (PerkinElmer) and Biomek FX (Beckman Coulter) so that the highest compound concentration was at 96 μM. Compounds were then pinged (75 nL per well) into a Greiner 384-well reaction plate (Greiner, #781076) using an ECHO 550 Liquid Handler (Labcyte). A total of 12 μl reaction buffer (IMAP buffer containing Tween and DTT, from Molecular Devices) was then added to each well of columns 1 and 13 for the negative controls and 12 μl of 2×AAK1 (0.2 nM full-length human protein, NCBI accession no. NP_055726.2) was added to the remaining wells. Enzyme was then pre-incubated with compound for 10 minutes at RT. Reactions were initiated upon Minitrak (PerkinElmer) addition of 12 μl substrate mix containing 2×Mu2 (0.2 μM, full length human protein), 2× cold ATP (2 μM), and 1.3 μCi of hot ^33P-ATP. Reactions proceeded for one hour at RT. Meanwhile, Millipore 384-well P81 filter plates (Millipore, catalog # MZPHN0W10) were placed on a plate washer (Zoom ZW, from Titertek) and pre-wet with 50 μl […] phosphoric acid. Kinase reactions were then stopped upon addition of 24 μl of 2% phosphoric acid to each well and the Minitrak was then used to transfer 40 μl from each well into the pre-wet Millipore 384-well P81 filter plates. Reaction mixtures were incubated for 10 minutes at room temperature in the P81 plates, followed by washing five times with 100 μl/well of 1% phosphoric acid using the Zoom filter washer. The bottom of each filter plate was sealed followed by addition of 20 μl Microscint 40 to each well, sealing the top of the plates with Flashplate cover, and then waiting one hour until reading on the TopCount (PerkinElmer).
# AAK1 = target: T2, AAK1 (Homo sapiens, UniProt Q2M2I8); test: HEK281 cell-based assay (phospho-mu2 Western blot in transfected HEK293F cells); conditions: HEK293F cells transfected with human AAK1 and AP2M1, 3 hours, read-out: CBA IC50
# T2 construct: expressed in transfected cells; host or cells: HEK293F
# Protocol: HEK293F cells were cultured in media containing DMEM (Gibco, cat. #11965), 10% FBS (SAFC Biosciences, cat. #12103C), 1×GPS (glutamine, penicillin and streptomycin). On day one, cells were plated on a 10 cm dish so that they are ˜80% confluent at time of transfection. Roughly 12 million cells were in a 10 cm dish at time of transfection. On day two, each dish was transfected with 48 ug DNA and 144 ul Lipofectamine 2000 (Invitrogen, cat.#11668-019). The DNA was comprised of a mixture (per 10 cm dish) containing 3 ug AAK1/HA/pIRES (full length human, NCBI accession no. NP_055726.2), 45 μg Flag/AP2MI/pcDNA (full length human), and 1.5 ml OPTI-MEM. The Lipofectamine 2000 is made up of a mixture (per 10 cm dish) containing 144 μl Lipofectamine 2000 and 1.5 ml OPTI-MEM. Each mixture was transferred to individual 15 ml tubes and incubated at room temperature for 5 minutes, and then the two mixes were combined and incubated at room temperature for 20 minutes. Growth media was then aspirated from each 10 cm plate and replaced with 10 ml of DMEM+10% FBS (no GPS). Finally, 3 ml DNA/Lipofectamine mix was added to each 10 cm dish and mix gently followed by incubate of plate overnight at 37° C. and 5% CO2.
# On day three, compounds were diluted in 100% DMSO at 1000× final concentration, followed by 3-fold serial dilutions for a total of 5 concentrations tested. Four compounds were tested per 10 cm dish. One ul of each compound dilution was then pipetted into a deep-well, 96-well plate, followed by addition of 500 μl DMEM+0.5% FBS into each well for a 2× final concentration of each compound. Cells were resuspended in a 10 cm dish by simple pipetting (HEK293 cells come off the plate that easy at this point) and then transferred to a 50 ml conical tube and pelleted by centrifugation at 1000 rpm for 5 min. Cell pellets were then resuspended in 2.75 ml DMEM+0.5% FBS per 10 cm dish and 100 μl of cell suspension transferred into each well of 96-well TC plate. Finally, 100 μl of 2× compound diluted in DMEM+0.5% FBS was then added into wells containing cell suspension for a 1× final concentration. Plates were then incubated at 37° C. and 5% CO2 for 3 hours followed by transferring of cell suspensions from each well into 12-tube PCR strips. The PCR strips were spun in a tip rack at 1000 rpm for 5 minutes to pellet cells and media was then removed by pipetting without disturbing the cell pellet.
# To prepare for Western Blot analysis, cell pellets were resuspend in 40 ul 1×LDS-PAGE sample buffer (Invitrogen, cat.# NP0008)+2× Halt phophatase and protease inhibitor cocktail (Thermo Scientific, cat.#1861284), followed by sonicating each with microtip sonicator set at 5 for 8-10 seconds. Five ul of 10× NuPage Sample Reducing Agent (with […]) was to each sample followed by heat denaturing at 70 C for 10 min on PCR machine. A total of 10 μl per sample was loaded into each lane of a 4-20% Tris-Glycine Criterion 26-well gel (Biorad, cat.#345-0034) for the phospho-mu2 blot and 10 μl per lane in a 4-12% Bis-Tris (+MES buffer) NuPAGE 26-well gel (Invitrogen, cat.# WG1403BX10) for the mu2 blot. For controls, 2 ng of phospho-mu2 or 20 ng mu2/Flag proteins were loaded in the last well of each gel. After SDS-PAGE, samples on each gel were transferred to PVDF membrane using an iBlot and membranes were blocked for one hour in TBST+5% milk, followed by wash 3× for 5-10 min with TBST. Criterion gels were probed with rabbit anti-phospho-mu2 (1:5000; a rabbit polyclonal antibody produced by New England Peptide and affinity purified at Lexicon) in TBST+5% BSA, whereas, NuPAGE gels were probed with mouse anti-Flag (1:500; Sigma, cat.# F1804) in TBST+5% milk, and these primary antibodies were incubated overnight at 4° C. on a rocker. […]
# PC12 cells = conditions: Kuai et al. 2011; cited from earlier work
# T2 sequence (Q2M2I8 1-863 isoform Q2M2I8-2): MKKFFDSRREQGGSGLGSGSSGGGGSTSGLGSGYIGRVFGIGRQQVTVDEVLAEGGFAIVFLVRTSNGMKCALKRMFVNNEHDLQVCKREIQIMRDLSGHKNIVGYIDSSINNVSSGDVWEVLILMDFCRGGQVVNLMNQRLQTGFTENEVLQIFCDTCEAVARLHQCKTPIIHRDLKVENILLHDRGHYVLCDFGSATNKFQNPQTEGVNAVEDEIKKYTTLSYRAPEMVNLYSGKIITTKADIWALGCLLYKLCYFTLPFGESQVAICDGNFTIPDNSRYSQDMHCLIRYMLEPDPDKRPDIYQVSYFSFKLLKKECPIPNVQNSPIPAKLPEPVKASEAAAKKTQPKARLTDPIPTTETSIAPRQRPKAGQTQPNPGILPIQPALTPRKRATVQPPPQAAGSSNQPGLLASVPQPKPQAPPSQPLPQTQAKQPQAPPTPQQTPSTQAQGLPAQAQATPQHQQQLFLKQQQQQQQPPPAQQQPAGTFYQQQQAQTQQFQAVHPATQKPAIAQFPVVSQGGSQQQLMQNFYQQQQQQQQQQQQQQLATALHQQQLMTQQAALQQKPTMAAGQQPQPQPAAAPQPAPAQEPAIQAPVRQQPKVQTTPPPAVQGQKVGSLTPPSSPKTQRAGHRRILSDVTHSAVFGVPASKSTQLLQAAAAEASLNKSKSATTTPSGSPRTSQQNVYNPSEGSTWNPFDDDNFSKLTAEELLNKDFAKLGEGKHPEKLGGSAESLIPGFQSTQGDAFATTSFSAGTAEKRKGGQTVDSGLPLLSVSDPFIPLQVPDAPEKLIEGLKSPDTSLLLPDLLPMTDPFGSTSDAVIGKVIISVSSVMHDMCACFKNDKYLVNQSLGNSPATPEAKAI
# T1 sequence (Q2M2I8 1-863 isoform Q2M2I8-2): as above
SMILES,IC50 ([1]; class symbols) [nM],IC50 (AAK1; class symbols) [nM],Effect on Neuregulin-1 induced neurite outgrowth (PC12 cells),IC50 ([1]; numeric bounds) [nM],IC50 (AAK1; numeric bounds) [nM]
"COc1ncccc1-c1cnn2ccc(-c3ccn(CCC(F)(F)F)c(=O)c3)nc12 [4-(3-(2-methoxypyridin-3-yl)pyrazolo[1,5-a]pyrimidin-5-yl)-1-(3,3,3-trifluoropropyl)pyridin-2(1H)-one]",≤ 10,≤ 10,,,
"COc1ccc(F)cc1-c1cnn2ccc(-c3ccn(CCC(F)(F)F)c(=O)c3)nc12 [4-(3-(5-fluoro-2-methoxyphenyl)pyrazolo[1,5-a]pyrimidin-5-yl)-1-(3,3,3-trifluoropropyl)pyridin-2(1H)-one]",≤ 100,≤ 10,,,
"COc1ccc(F)cc1-c1cnn2ccc(-c3ccn(CC(C)C)c(=O)c3)nc12 [4-(3-(5-fluoro-2-methoxyphenyl)pyrazolo[1,5-a]pyrimidin-5-yl)-1-isobutylpyridin-2(1H)-one]",≤ 10,≤ 10,,,
"COc1ccc(F)cc1-c1cnn2ccc(-c3ccn(CCC(C)C)c(=O)c3)nc12 [4-(3-(5-fluoro-2-methoxyphenyl)pyrazolo[1,5-a]pyrimidin-5-yl)-1-isopentylpyridin-2(1H)-one]",≤ 10,≤ 10,,,
"COc1ncc(F)cc1-c1cnn2ccc(-c3ccn(CCC(F)(F)F)c(=O)c3)nc12 [4-(3-(5-fluoro-2-methoxypyridin-3-yl)pyrazolo[1,5-a]pyrimidin-5-yl)-1-(3,3,3-trifluoropropyl)pyridin-2(1H)-one]",≤ 10,≤ 10,,,
"COc1ncc(F)cc1-c1cnn2ccc(-c3ccn(CCC(C)C)c(=O)c3)nc12 [4-(3-(5-fluoro-2-methoxypyridin-3-yl)pyrazolo[1,5-a]pyrimidin-5-yl)-1-isopentylpyridin-2(1H)-one]",≤ 10,≤ 10,,,
"CC(C)CCn1ccc(-c2ccn3ncc(Br)c3n2)cc1=O [4-(3-bromopyrazolo[1,5-a]pyrimidin-5-yl)-1-isopentylpyridin-2(1H)-one]",≤ 10,≤ 10,,,
"CC(C)CCn1ccc(-c2ccn3ncc(Cl)c3n2)cc1=O [4-(3-chloropyrazolo[1,5-a]pyrimidin-5-yl)-1-isopentylpyridin-2(1H)-one]",≤ 100,≤ 10,,,
"CC(C)CCn1ccc(-c2ccn3ncc(I)c3n2)cc1=O [4-(3-iodopyrazolo[1,5-a]pyrimidin-5-yl)-1-isopentylpyridin-2(1H)-one]",≤ 10,≤ 10,,,
"COc1ncccc1-c1cnn2ccc(-c3ccnc(OC(C)C)c3)nc12 [5-(2-isopropoxypyridin-4-yl)-3-(2-methoxypyridin-3-yl)pyrazolo[1,5-a]pyrimidine]",≤ 100,≤ 10,,,
COC(=O)[C@@]1(O)C[C@H]2O[C@]1(C)n1c3ccccc3c3c4c(c5c6ccccc6n2c5c31)C(=O)NC4 [K252a],,,potentiation of Neuregulin-1 induced neurite outgrowth,,
"COc1ncccc1-c1cnn2ccc(C3=CCN(C(=O)OC(C)C)CC3)nc12 [isopropyl 4-(3-(2-methoxypyridin-3-yl)pyrazolo[1,5-a]pyrimidin-5-yl)-5,6-dihydropyridine-1(2H)-carboxylate]",≤ 10,≤ 10,,,
"COc1ncccc1-c1cnn2ccc(C3CCN(C(=O)OC(C)C)CC3)nc12 [isopropyl 4-(3-(2-methoxypyridin-3-yl)pyrazolo[1,5-a]pyrimidin-5-yl)piperidine-1-carboxylate]",,≤ 10,,> 300,
"CC(C)OC(=O)N(C)CCCc1ccn2nccc2n1 [isopropyl methyl(3-(pyrazolo[1,5-a]pyrimidin-5-yl)propyl)carbamate]",,,,> 100,> 300
